In patent publication US20100267952A1, “USE OF NOVEL COMPOUND HAVING AFFINITY FOR AMYLOID, AND PROCESS FOR PRODUCTION OF THE SAME” (NIHON MEDI-PHYSICS CO., LTD., priority 2007, published 2010):
Where two headings read alike, the source gives them in different places.

Tests used:
[1] = test system: Salmonella typhimurium TA98; assay: Reverse mutation test (Ames test), TA98; assay type: cell-based
Description: (§1) In order to examine mutagenicity of Compound I-1, I-2, I-4 and I-5, reverse mutation test using Salmonella typhimurium TA98 and TA100 (hereinafter referred to as Ames test) was conducted.
(§2) The test was conducted without addition of S9mix and with addition of S9mix. Dimethylsulfoxide was used as a negative control. A positive control was 2-(2-furyl)-3-(5-nitro-2-furyl)acrylamide in case S9mix was not added, and 2-aminoanthracene in case S9mix was added.
(§3) The amount of each sample to be added to the test plate was 7 dosages (geometric ratio 4) with the maximum dose being 1250 μg/plate for Compounds I-1 and I-5, and 7 dosages (geometric ratio 3) with the maximum dose being 5000 μg/plate for Compounds I-2 and I-4. After a sample to be examined and a strain (TA98 or TA100), or a sample to be examined, S9mix and the strain were mixed together, the mixture was multilayered using soft agar on a medium of a test plate, and then incubated at 37° C. for 48 hours.

amyloid (amylin) = biological target: T1, amyloid (amylin) (Homo sapiens, UniProt P10997); assay: Inhibition of binding of Thioflavin T to amyloid derived from amylin; conditions: Thioflavin T 5 μmol/L
T1 construct: Amylin (human) (manufactured by Wako) was dissolved in phosphate buffer (pH 7.4); purchased Wako
T1 sequence (P10997 34-70 limits assumed): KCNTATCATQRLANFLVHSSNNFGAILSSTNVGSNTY
Description: Amylin is an amyloid accumulating in pancreas of type II diabetes.
(3) The amyloid suspension was dissolved in 50 mM phosphate buffer (pH 7.4) at a concentration of amylin of 15 μM.
(4) Samples in which each compound for evaluation and amyloid were dissolved in a 50 mM phosphate buffer (pH 7.4) at final concentrations shown in Table 2-1 were prepared.
(5) A sample in which 100 μL of 50 mM phosphate buffer (pH 7.4) and 50 μL of 50 mM glycin-NaOH buffer (pH 8.5) were mixed was made as a blank, and subjected to the same procedure as in (4) and used for a calculation of inhibition ratio.
(6) The microplate filled with the sample solutions was left to stand still for 30 hours. Then, fluorescence strength of each sample solution was measured (measurement conditions: excitation wavelength of 446 nm, emission wavelength of 490 nm) with microplate reader (type: SPECTRA MAX GEMINI XS, manufactured by Molecular Devices) (hereinafter, A denotes the fluorescence strength in a sample with zero (0) concentration of each compound for evaluation, and B denotes the fluorescence strength in a sample with 1.5 μmol/L or higher concentration of each compound for evaluation).
(7) Using the fluorescence strength measured above in (6), the following formula (2-1): […]
was used to determine the inhibition ratio.

[2] = biological target: T2, amyloid (aggregated Aβ1-40) (Homo sapiens, UniProt P05067); assay: Measurement of affinity with amyloid: inhibition of [125I]3′-I-BTA-0 binding; conditions: [125I]3′-I-BTA-0 400 pmol/L, amyloid 1 μmol/L, 22° C., 3 hours
T2 construct: Aβ1-40 (Peptide Institute, INC.) was dissolved in phosphate buffer (pH 7.4); purchased Peptide Institute, INC
Description: Affinity of the present compounds with amyloid was examined by the following in vitro binding tests.
(1) Aβ1-40 (Peptide Institute, INC.) was dissolved in phosphate buffer (pH 7.4) and shaken at 37° C. for 62-72 hours, to obtain a 1 mg/mL suspension of aggregated Aβ (hereinafter referred to as amyloid suspension in this Example).
(3) According to the method described in a literature (Wang, Y., et al., J. Labeled Compounds Radiopharmaceut. 44, 5239 (2001)), [^125I]2-(3′-iodo-4′-aminophenyl)benzothiazole (hereinafter referred to as […]) was prepared from a labeling precursor 2-(4′-aminophenyl)benzothiazole, and dissolved in ethanol.
(5) Samples in which [^125I]3′-I-BTA-0, each compound for evaluation and amyloid were dissolved in a 0.1% bovine serum albumin-containing phosphate buffer (pH 7.4) at final concentrations shown in Table 1-2 were prepared. The resulting samples were filled in each well (about 0.3 mL in volume) of a 96-well microplate.
(6) The microplate filled with the sample solutions was shaken at a given rate (400 rpm) at 22° C. for 3 hours. Then, each sample solution was filtered through a glass fiber filter (trade name: Mulutiscreen™-FC, manufactured by Millipore), to separate the [^125I]3′-I-BTA-0 attached to amyloid from the free [^125I]3′-I-BTA-0.
(7) The glass fiber filter used for the filtration of each sample solution was washed with a 0.1% bovine serum albumin-containing phosphate buffer (pH 7.4) (0.5 mL×5), and radioactivity of the glass fiber filter was measured with an autowell gamma system (manufactured by Aloka, Type: ARC-301B).
(8) Separately, a solution of containing 15 μmol/L of 6-Me-BTA-2, […] of [^125I]3′-I-BTA-0 and 1 μmol/L of Aβ1-40 were prepared and subjected to the same procedures as described above in (6) and (7) to measure a radioactivity level. The measured radioactivity level was defined as the background radioactivity level, and used in the calculation of the inhibition ratio (hereinafter referred to as BG).
(9) Using the radioactivity levels measured above in (7) and (8), the inhibition ratio was determined by the following formula (1-1).
A graph in which values converted by probit transformation from the obtained inhibition ratios were plotted relative to logarithms of concentrations of compounds for evaluation was prepared to obtain an approximate straight line by the least square method. Using the line, the concentration of each compound for evaluation was determined, at which the radioactivity level is half of the level of the sample free from each compound for evaluation, and was defined as a 50% inhibition concentration of each compound (hereinafter referred to as IC50% value). Using the value as an indicator, affinity of each compound for evaluation with amyloid (aggregated Aβ1-40) was evaluated.

[3] = test system: Salmonella typhimurium TA100; assay: Reverse mutation test (Ames test), TA100; assay type: cell-based
Description: as §1, §2, §3

[4] = test system: Salmonella typhimurium TA98 and TA100; assay: Reverse mutation test (Ames test), overall judgment; assay type: cell-based; conditions: TA98 and TA100, with and without S9mix
Description: as §1, §2, §3
The numbers of reverse mutation colonies of the respective strains in the group treated with Compounds I-1, I-2, I-4 and I-5 were less than two times the number in the group treated with the negative control, regardless of addition of S9mix and the addition amount of a sample to be examined. From the aforementioned results, it is judged that Compounds I-1, I-2, I-4 and I-5 are negative in the Ames test and have no mutagenicity.

[5] = biological target: T2, amyloid (aggregated Aβ1-40); assay: Measurement of binding to amyloid (radiolabelled compound, glass fiber filtration); conditions: amyloid 2.5-1000 nmol/L, 22° C., 3 hours
Description: (7) A relation between the amount of the Compound I-6 binding to amyloid and the amount of added amyloid was evaluated from the measurement results of (6). Unspecific binding was determined using a sample to which the Compound I-2 (non-RI labeled compound) was added to become 100 nM (at a final concentration) above in (4) (Example I-7).
(8) Using [^125I]-IMPY synthesized in the above Reference Example I-6, the same procedure as the above (2) to (6) were carried out to obtain control data (Comparative Example I-1).
A relation between the concentration of amyloid in the sample solution and the radioactive count on the glass fiber filter measured above in (6) is shown in FIG. 1-11. The radioactivity on the glass fiber was increased proportionally to the concentration (addition amount) of amyloid (Example I-7). […] Therefore, the radioactive count on the glass fiber is a value reflecting the amount of the compound attached to amyloid, and the slope of the graph which plotted the radioactive count relative to the concentration of amyloid is a value which can be an index representing the intensity of binding to amyloid.

[6] = biological target: T3, amyloid (aggregated Aβ1-40) injected into amygdaloid nucleus (Homo sapiens, UniProt P05067); assay: Confirmation of imaging of amyloid in brain (autoradiogram of brain slice, Aβ1-40 injected rat); assay type: in vivo, male Wistar rat; conditions: tail vein, 16 MBq equivalent, brain removed 60 minutes after injection
T3 construct: Aβ1-40 (Peptide Institute, INC.) was dissolved in phosphate buffer (pH 7.4); purchased Peptide Institute, INC
Description: The following experiment was carried out in order to examine whether amyloid in brain can be imaged by the compound of the present invention.
(1) Aβ1-40 (manufactured by Peptide Institute, INC.) was dissolved in phosphate buffer (pH 7.4) and shaken at 37° C. for 72 hours, to obtain 1 mg/mL of a suspension of aggregated Aβ (hereinafter referred to as amyloid suspension in this Example).
(2) 25 μL (corresponding to 25 μg) of the amyloid suspension was injected into an amygdaloid nucleus on one side of a male Wistar rat (7-week old). As a control, 25 μL of a phosphate buffered physiological saline solution (pH 7.4) was injected into an amygdaloid nucleus on the other side of the rat. The rats were examined 1 day after the injection of the amyloid suspension and the phosphate buffered physiological saline solution (pH 7.4).
This solution was injected into the rat through the tail vein (dosage: 0.5 mL, dosed radioactivity: 16 MBq equivalent).
(4) Brain was removed 60 minutes after the injection to prepare a brain slice of 10 μm in thickness with a microtome (type: CM3050S, manufactured by LEICA). The brain slice was exposed to an imaging plate for 20 hours, and then image analysis was carried out by use of a Bio-imaging Analyzer (type: BAS-2500; manufactured by FUJIFILM Corporation).

[7] = Transferability into brain and clearance; assay type: in vivo, male Wistar rats; conditions: rats, intravenous injection
Excerpt: Three animals were used for Experiment I-20 and Comparative Experiment I-9, and two animals were used for Experiment I-21 at the respective time points.

[8] = Partition coefficient based on the octanol extraction method; assay type: physicochemical; conditions: octanol / 10 mmol/L phosphate buffer (pH 7.4)
Description: After the mixture was centrifuged with a low-speed centrifuge (2000 rpm×60 min.), the octanol layer and the water layer were sampled each in an amount of 1 mL, and subjected to measurement of radioactivity count with an autowell gamma system (manufactured by Aloka, Type: ARC-301B). Using the obtained radioactivity count, log Poctanol was calculated in accordance with the equation (1-2).

[9] = International Publication No. WO03/106439; cited from earlier work
[10] = [125I]-labeled, normal mice; cited from earlier work
[11] = [11C]-labeled, rats; cited from earlier work

T2 sequence (P05067 672-711 limits assumed): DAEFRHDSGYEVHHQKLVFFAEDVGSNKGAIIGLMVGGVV
T3 sequence (P05067 672-711): as the sequence (P05067 672-711 limits assumed) above

SMILES: FCCCOc1ccc(-c2cn3cc(Br)ccc3n2)cc1 [Compound I-1, 6-bromo-2-[4′-(3″-fluoropropoxy)phenyl]imidazo[1,2-a]pyridine]
- Mutagenicity, TA98, With addition of S9mix [1]: Negative
- Mutagenicity, TA98, Without addition of S9mix [1]: Negative
- Inhibition ratio (%) of binding of amyloid (amylin) to Thioflavin T (amyloid (amylin); compound 1.5 μmol/L): 14.5%
- Inhibition ratio (%) of binding of amyloid (amylin) to Thioflavin T (amyloid (amylin); compound 15 μmol/L): 37.0%
- Inhibition ratio (%) of binding of amyloid (amylin) to Thioflavin T (amyloid (amylin); compound 30 μmol/L): 43.7%
- IC50 [2]: 1.4 nM
- Mutagenicity, TA100, With addition of S9mix [3]: Negative
- Mutagenicity, TA100, Without addition of S9mix [3]: Negative
- Ames test judgment [4]: negative

SMILES: FCCCOc1ccc(-c2cn3cc(I)ccc3n2)cc1 [Compound I-2, 2-[4′-(3″-fluoropropoxy)phenyl]-6-iodoimidazo[1,2-a]pyridine]
- Mutagenicity, TA98, With addition of S9mix [1]: Negative
- Mutagenicity, TA98, Without addition of S9mix [1]: Negative
- Inhibition ratio (%) of binding of amyloid (amylin) to Thioflavin T (amyloid (amylin); compound 1.5 μmol/L): 28.9%
- Inhibition ratio (%) of binding of amyloid (amylin) to Thioflavin T (amyloid (amylin); compound 15 μmol/L): 26.6%
- Inhibition ratio (%) of binding of amyloid (amylin) to Thioflavin T (amyloid (amylin); compound 30 μmol/L): 28.2%
- IC50 [2]: 0.9 nM
- Mutagenicity, TA100, With addition of S9mix [3]: Negative
- Mutagenicity, TA100, Without addition of S9mix [3]: Negative
- Ames test judgment [4]: negative

SMILES: FCCOc1ccc(-c2cn3cc(Br)ccc3n2)cc1 [Compound I-3, 6-bromo-2-[4′-(2″-fluoroethoxy)phenyl]imidazo[1,2-a]pyridine]
- IC50 [2]: 1.8 nM

SMILES: FCCCOc1ccc(-c2cn3cc(I)cnc3n2)cc1 [Compound I-5, 2-[4′-(3″-fluoropropoxy)phenyl]-6-iodoimidazo[1,2-a]pyrimidine]
- Mutagenicity, TA98, With addition of S9mix [1]: Negative
- Mutagenicity, TA98, Without addition of S9mix [1]: Negative
- IC50 [2]: 55.4 nM
- Mutagenicity, TA100, With addition of S9mix [3]: Negative
- Mutagenicity, TA100, Without addition of S9mix [3]: Negative
- Ames test judgment [4]: negative

SMILES: FCCCOc1ccc(-c2cn3cc([125I])ccc3n2)cc1 [Compound I-6, 2-[4′-(3″-fluoropropoxy)phenyl]-6-[^125I]iodoimidazo[1,2-a]pyridine]
- slope of radioactive count on glass fiber relative to concentration of amyloid (index of intensity of binding to amyloid) [5]: greater than the slope for [^125I]-IMPY

SMILES: FCCCOc1ccc(-c2cn3cc([123I])ccc3n2)cc1 [Compound I-7, 2-[4′-(3″-fluoropropoxy)phenyl]-6-[^123I]iodoimidazo[1,2-a]pyridine]
- accumulation of radioactivity on intracerebral amyloid (autoradiogram) [6]: possesses a property of accumulating on intracerebral amyloid and a capability of imaging intracerebral amyloid
- Radioactive distribution per unit weight in brain, After 2 min. [7]: 1.10 % ID/g
- Radioactive distribution per unit weight in brain, After 5 min. [7]: 0.75 % ID/g
- Radioactive distribution per unit weight in brain, After 30 min. [7]: 0.12 % ID/g
- Radioactive distribution per unit weight in brain, After 60 min. [7]: 0.05 % ID/g

SMILES: [18F]CCCOc1ccc(-c2cn3cc(Br)ccc3n2)cc1 [Compound I-8, 6-bromo-2-[4′-(3″-[^18F]fluoropropoxy)-phenyl]imidazo[1,2-a]pyridine]
- Radioactive distribution per unit weight in brain, After 2 min. [7]: 1.20 % ID/g
- Radioactive distribution per unit weight in brain, After 5 min. [7]: 0.75 % ID/g
- Radioactive distribution per unit weight in brain, After 30 min. [7]: 0.18 % ID/g
- Radioactive distribution per unit weight in brain, After 60 min. [7]: 0.12 % ID/g
- logPoctanol value [8]: 2.0

SMILES: CC(=C(C#N)C#N)c1ccc2cc(N(C)CCF)ccc2c1 [FDDNP, 2-(1-{6-[(2-fluoroethyl)(methyl)amino]-2-naphthyl}ethylidene)malononitrile]
- reverse mutation test [9]: positive

SMILES: CN(C)c1ccc(-c2nc3ccc(I)cc3o2)cc1 [IBOX, 6-iodo-2-[4′-(N,N-dimethylamino)phenyl]benzoxazole]
- clearance from normal tissues [10]: insufficient in clearance from normal tissues

SMILES: CNc1ccc(/C=C/c2ccc(O)cc2)cc1 [SB-13, (E)-4-methylamino-4′-hydroxystilbene]
- clearance from normal tissues [11]: it cannot be said that the clearance is sufficiently fast

SMILES: CN(C)c1ccc(-c2nc3ccc(I)cc3s2)cc1 [TZDM, 6-iodo-2-[4′-(N,N-dimethylamino)phenyl]benzothiazole]
- clearance from normal tissues [10]: insufficient in clearance from normal tissues

SMILES: CN(C)c1ccc(/C=C/c2ccc(I)cc2)cc1 [m-I—SB, (E)-4-dimethylamino-4′-iodostilbene]
- clearance from normal tissues [10]: insufficient in clearance from normal tissues
